Values quoted from earlier work as cited in patent US8198264B2, “Method for treating head and neck cancer” (National Cancer Center, priority 2006, dated 2012).

What was measured:
[1] = test system: advanced/relapsed head and neck cancer; conditions: 5-FU drug alone, continuous intravenous infusion
[2] = test system: squamous cell head and neck cancer; conditions: regimen combined with radiotherapy, meta-analysis

| Compound | response rate [1] [%] | odds ratio (add-on effect on survival) [2] |
| --- | --- | --- |
| O=c1[nH]cc(F)c(=O)[nH]1 [5-FU, 5-fluorouracil] | 15 | 0.66 |
| CO[C@@]12[C@H](COC(N)=O)C3=C(C(=O)C(C)=C(N)C3=O)N1C[C@@H]1N[C@@H]12 [Mitomycin C] | – | 0.54 |
| Bleomycin | – | 0.80 |
